Test results as given in patent publication US20100160250A1, “METHOD FOR TREATING INFLAMMATORY CONDITIONS” (priority 2008, published 2010).

Key:
Format in all cases: cell-based
[1] = target: T1, P2X7 receptor (Homo sapiens, UniProt Q99572); assay: IL-1β secretion assay in LPS-primed human monocytes stimulated with ATP; parameters: monocytes were selected by adherence to the tissue culture plastic; endogenous in cells; host or cells: LPS-primed adherent monocytes from human peripheral blood; settings: human peripheral blood monocytes, 1 ng/mL LPS, 1 mM ATP, 30 min; read-out: IL1β inhibition IC50
T1 sequence (Q99572 1-595): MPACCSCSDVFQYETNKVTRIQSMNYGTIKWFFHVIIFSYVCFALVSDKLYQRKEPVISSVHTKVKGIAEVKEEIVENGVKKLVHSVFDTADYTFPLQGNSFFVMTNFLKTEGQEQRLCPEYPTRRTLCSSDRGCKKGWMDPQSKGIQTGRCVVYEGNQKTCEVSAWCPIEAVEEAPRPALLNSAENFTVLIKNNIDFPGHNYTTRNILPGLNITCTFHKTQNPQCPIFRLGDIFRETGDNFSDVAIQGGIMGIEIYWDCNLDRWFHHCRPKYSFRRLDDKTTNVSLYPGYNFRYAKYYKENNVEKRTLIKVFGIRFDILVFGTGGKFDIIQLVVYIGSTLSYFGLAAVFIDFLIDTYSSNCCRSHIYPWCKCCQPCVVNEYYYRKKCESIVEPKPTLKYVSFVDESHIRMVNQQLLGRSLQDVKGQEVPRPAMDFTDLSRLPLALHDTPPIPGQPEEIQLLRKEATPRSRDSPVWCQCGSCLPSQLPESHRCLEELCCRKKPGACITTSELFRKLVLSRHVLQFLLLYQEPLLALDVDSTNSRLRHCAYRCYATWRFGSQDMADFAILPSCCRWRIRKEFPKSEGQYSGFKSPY
Source text: Inhibition of IL-1β release by antagonists of the P2X7 receptor is a model of ameliorating inflammatory condition. This assay is an in vitro assay of cytokine secretion that can be used to evaluate the ability of compounds of this invention of Formula I to inhibit cytokine secretion, as the secretion of cytokines contributes to the inflammation in asthma, COPD and other pulmonary diseases, as well as in RA, IBD and neuropathic pain.
Peripheral blood from healthy human volunteers was collected in an acid-citrate-dextrose (ACD) buffer to prevent clotting, layered over a Ficoll-Paque gradient (1:1), and centrifuged for 45 minutes at 1200 rpm. The interface between the plasma layer and the Ficoll layer (buffy coat) was then diluted in RPMI 1640/10% heat inactivated FBS and centrifuged for 10 minutes at 1500 rpm. The resultant pellet was re-suspended in media containing 1 ng/mL lipopolysaccharide (LPS) and plated at a density of 500,000 cells/mL. After a 3 hour incubation (37° C., 5% CO2, humidified air) monocytes were selected by adherence to the tissue culture plastic by washing wells with media. Following the media wash, cells were incubated for 2 minutes with the antagonists prior to the addition of 1 mM ATP. Cells were allowed to incubate with compounds for 30 minutes at 37° C. after which the supernatant was removed for immediate determination of IL-1β concentration. The concentration of IL-1β in cell supernatants was measured using the Bio-Plex (Bio-Rad) system according to manufacture's instructions and inhibition constants were calculated using Prism Graph Pad version 3.03 (San Diego, Calif.). IC50 values represent the concentrations of antagonist compounds necessary to inhibit 50% of the activity (calcium dependent fluorescence or IL-1β concentration) elicited by a given concentration of ATP.

[2] = target: T1, P2X7 receptor; assay: Pore formation assay (Yo-Pro dye influx) in 1321N1 cells expressing P2X7, BzATP challenge; parameters: expressed in transfected cells; host or cells: human astrocytoma 1321N1 cells; settings: 1321N1 cells expressing P2X7, 100 uM BzATP, Yo-Pro fluorescence after 90 minutes
Procedure: Inhibition of Yo-Pro fluorescent dye influx into the cells following P2X7 receptor activation provides a read-out of compounds potency in inhibition of pore formation activity of the P2X7 receptor.
Assay was conducted essentially as in Alcaraz et al. Human astrocytoma (1321N1) cells expressing P2X7 were seeded in 96-well plates at a density of 200,000 cells/well in assay buffer consisting of 5 mM KCl, 140 mM KAspartate, 10 mM glucose, 10 mM Hepes pH 7.0, 10 mM N-methyl-D-glucoseamine, 1 mM EDTA and 1 uM Yo-Pro dye. Cells were exposed to serially diluted concentrations of compound and then challenged with 100 uM BzATP. Yo-Pro fluorescence was measured after 90 minutes. Inhibition of Yo-Pro dependent fluorescence indicates the assayed compound is an antagonist of the P2X7 receptor.

[3] = target: T1, P2X7 receptor; assay: Calcium signalling (Fluo-3, FLIPR) in 1321N1 cells expressing P2X7, BzATP challenge; parameters: expressed in transfected cells; host or cells: human astrocytoma 1321N1 cells; settings: human astrocytoma 1321N1 cells expressing P2X7, 30 uM BzATP; read-out: Inhibition of Ca^+2 signaling IC50
Procedure: Inhibition of Ca^2+ influx into the cell by antagonists of the P2X7 receptor measures inhibition of the ion channel activity of the P2X7 receptor.
Human astrocytoma (1321N1) cells expressing P2X7 were grown to confluency in 96-well plates. Cells were loaded with a solution of Fluo-3 AM (2.5 μM final concentration) in an assay buffer consisting of 10 mM KCl, 118 mM NaCl, 0.25 mM CaCl2, 1 mM MgCl2, 20 mM HEPES, 10 mM glucose, pH 7.4. After a 60-minute incubation with Fluo-3 AM at 25° C., cells were washed and stimulated with serially diluted concentrations of compound and then challenged with 30 uM BzATP. Calcium fluorescence was measured using the FLIPR 89 (Molecular Devices Corp., Sunnyvale, Calif.) and results were calculated using Prism Graph Pad version 3.03 (San Diego, Calif.). Inhibition of calcium dependent fluorescence indicates the assayed compound is an antagonist of the P2X7 receptor.

Row | SMILES | IC50 [1] [nM] | IC50 [2] [nM] | IC50 [3] [nM]
1 | O=C(Nc1ncnc2c1ncn2[C@@H]1O[C@H](C(=O)O)C2OC3(CCCCC3)O[C@@H]21)NC12CC3CC(CC(C3)C1)C2 (stereo partly drawn) [Compound 38] | 98 | 52 | 597
2 | O=C(Nc1ncnc2c1ncn2[C@@H]1O[C@H](CO)C2OC3(CCCCC3)O[C@@H]21)NC1CCCCC1 (stereo partly drawn) [Compound 39, 6-(cyclohexylurea)adenosine 2′,3′-cyclohexyl ketal] | 65 | 346 | 477
3 | CCNC(=O)[C@H]1O[C@@H](n2cnc3c(NC(=O)NC4CCCCC4)ncnc32)[C@H]2OC3(CCCCC3)OC12 (stereo partly drawn) [Compound 43, 6-(cyclohexylurea)adenosine 2′,3′-cyclohexyl ketal 5′-ethyl carboxamide] | 69 | 152 | 295
4 | O=C(Nc1ncnc2c1ncn2[C@@H]1O[C@H](C(=O)NCCO)C2OC3(CCCCC3)O[C@@H]21)NC1CCCCC1 (stereo partly drawn) [Compound 44, 6-(cyclohexylurea)adenosine 2′,3′-cyclohexyl ketal 5′-(2-hydroxy)ethyl carboxamide] | 58 | 257 | 404
5 | CCNC(=O)OC[C@H]1O[C@@H](n2cnc3c(NC(=O)NC4CCCCC4)ncnc32)[C@H]2OC3(CCCCC3)OC12 (stereo partly drawn) [Compound 46] | 99 | 234 | 852
